Counter-ions that a name gives are not always drawn.
Experiments:
in vivo = settings: rat, male rats (dd strain), fasted 12 hours
β-adreno-receptor = assay: Inhibition of histamine-induced bronchoconstriction (bronchial resistance, Konzett-Rossler method) in anesthetized dogs; β-adreno-receptor stimulating activity; assay type: in vivo, dog (male hybrid adult dogs); settings: femoral vein, 1 minute before histamine 10 mg/kg
Procedure: The stimulating activity of the compounds of this invention on β-adreno-receptor was determined as follows:
Male hybrid adult dogs, weighing 10 to 15 kg were anesthesized with 30 mg/kg of body weight of sodium pentobarbital administered intravenously. Each of the anesthesized dogs were secured on its back and a cannula was inserted into the trachea. Artificial respiration was conducted using a device according to the Konzett-Rossler method (Konzett H. & Rossler R., "Versuchsanordnug zu Untersuchungen an der Bronchial Moskolatur", Arch. Exp. Path., Pharmack, 195, 71 - 74, 27 - 40 (1940)). The volume of the overflowing air at the time of inhalation was measured through a pneumotachometer to determine the bronchial resistance and the values obtained were recorded on a polygraph.
In the above experiment, histamine was employed as a bronchoconstrictor at a dosage level of 10 mg/kg of body weight, and an aqueous solution containing each of the test compounds and controls shown in Table 1 below was then administered to each of the anesthesized dogs through the femoral vein at various dosage levels shown in Table 1 below 1 minute before the administration of the histamine. Sodium pentobarbital was infused during the experiment at a dosage level of 4 mg/kg of body weight/hr using an automatic injector in order to inhibit spontaneous respiration and to keep the anesthetic condition constant over the test period.

Compound | LD50 (in vivo; iv, I.v.) [mg/kg] | LD50 (in vivo; po) [mg/kg] | Bronchial Resistance (%) (β-adreno-receptor; dose 0.01 ug/Kg) | Bronchial Resistance (%) (β-adreno-receptor; dose 0.03 ug/Kg) | Bronchial Resistance (%) (β-adreno-receptor; dose 0.1 ug/Kg) | Bronchial Resistance (%) (β-adreno-receptor; dose 0.3 ug/Kg) | Bronchial Resistance (%) (β-adreno-receptor; dose 1.0 ug/Kg) | Bronchial Resistance (%) (β-adreno-receptor; dose 3.0 ug/Kg) | Bronchial Resistance (%) (β-adreno-receptor; dose 10 ug/Kg) | Bronchial Resistance (%) (β-adreno-receptor; dose 30 ug/Kg) | Bronchial Resistance (%) (β-adreno-receptor; dose 100 ug/Kg)
CCC(NC(C)C)C(O)c1ccc(O)c2c1CCC(=O)N2 (stereo not drawn) [5-(1-Hydroxy-2-isopropylamino)butyl-8-hydroxy-3,4-dihydrocarbostyril] | 81.5 | 830 | – | – | – | – | – | – | – | – | –
CC(C)NCC(O)c1cc(O)cc(O)c1 (stereo not drawn) [Metaproterenol Sulfate (Arotec)] | – | – | 0 | 0 | 2.7 | 11.1 | 27.5 | 50.0 | 88.3 | 100 | –
CC(C)(C)NCC(O)c1ccc(O)c(CO)c1 (stereo not drawn) [Salbutamol] | – | – | 0 | 0 | 16.6 | 33.3 | 66.6 | 100 | – | – | –
CC(C)NCC(O)c1ccc(O)c2ncccc12 (stereo not drawn) [Quinterenol] | – | – | 0 | 0 | 0 | 0 | 0 | 0 | 0 | 7.6 | 15.3
CC(C)NCC(O)c1ccc(O)c(O)c1 (stereo not drawn) [Isoproterenol] | – | – | – | 16.6 | – | – | 100 | – | – | – | –
